This note sets out measurements from ChEMBL document CHEMBL1201862, “PubChem BioAssay data set” (2004).

Test systems include XF498; LXFL 529; M19-MEL; HOP-18; SNB-78; DLD-1; DMS-114; DMS-273; RXF 631.
What all share (experiment): NCI tumour cell line growth inhibition, 48 h

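Exposure lasted 48 hours, with cells grown in 96-well plates and compounds tested at five concentrations. The concentration for 50% growth inhibition is given as GI50.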 Active and inactive are the calls of the source. No stated cut-off is given here; in the data, active = GI50 up to about 1.1 µM and inactive = higher.

`CC(=O)/C(=C\c1cccc([N+](=O)[O-])c1)C(=O)Nc1ccccc1C`: the GI50 in the test on XF498, in the test with LXFL 529, in the test on M19-MEL, in the test on HOP-18, in the test with SNB-78 and with DLD-1 was > 100 µM (inactive) each time. Also, the GI50 with DMS-114 is > 100 µM (inactive).
Regarding `C=CCC(C(=O)OC)C1(C(=O)OC)c2[nH]c3ccccc3c2CCN1Cc1ccccc1` (centres undefined), the GI50 with M19-MEL, with DLD-1 and in the test with DMS-114 was > 100 µM (inactive) in each case.
On to `CNCC(=O)Nc1ccc2c(c1)C(=O)c1ccc(NC(=O)CNC)cc1C2=O`, for which the GI50 in the test with XF498 is 3.32 µM (inactive); in the test with LXFL 529 it was 2.8 µM (inactive); in the test with HOP-18, < 0.01 µM (active); in the test on SNB-78, 3.05 µM (inactive); with DLD-1, 9.64 µM (inactive); with DMS-273, 2.6 µM (inactive). In addition, the GI50 with DMS-114 was 2.03 µM (inactive).
Consider `COc1ccc(/C=c2/sc3n(c2=O)NC2(CCC(C)CC2)NN=3)cc1` (centres undefined), for which the GI50 in the test with XF498, in the test with LXFL 529, in the test on M19-MEL, with SNB-78, in the test on DLD-1 and in the test with DMS-273 was > 100 µM (inactive) throughout. In addition, the GI50 in the test with DMS-114 is 50 µM (inactive).
For `O=C(COC(=O)c1cccc2c(=O)c3ccccc3[nH]c12)Nc1ccc(S(=O)(=O)Nc2ncccn2)cc1`, the GI50 in the test on XF498 was 26.5 µM (inactive); in the test with LXFL 529, 47.5 µM (inactive); with M19-MEL it was 48.2 µM (inactive); with RXF 631, 94 µM (inactive); in the test with SNB-78, 30.6 µM (inactive); in the test on DLD-1 it was > 100 µM (inactive). In addition, the GI50 is 27.5 µM (inactive) in the test on DMS-273 and 43.4 µM (inactive) in the test on DMS-114.
Turning to `CSc1snc2sc3c(Cl)nnnc3c12`, the GI50 with XF498 was 14.4 µM (inactive); with LXFL 529, 2.11 µM (inactive); in the test with M19-MEL, 9.35 µM (inactive); in the test on RXF 631, 16.1 µM (inactive); with HOP-18, 19.1 µM (inactive); in the test on SNB-78 it was 13.8 µM (inactive). The GI50 with DLD-1 was 10 µM (inactive); in the test on DMS-273, 11.4 µM (inactive); with DMS-114, 13.2 µM (inactive).
In the case of `CN1C(c2ccccc2)CC(=NOCc2ccccc2)CC1c1ccccc1` (centres undefined), the GI50 in the test on XF498 was > 100 µM (inactive); in the test on LXFL 529, 16.8 µM (inactive); in the test on M19-MEL, > 100 µM (inactive); in the test on RXF 631, 31.2 µM (inactive); with HOP-18, 48 µM (inactive); in the test with SNB-78, 42.5 µM (inactive). For the same compound, the values for the GI50 with DLD-1, with DMS-273 and in the test with DMS-114 were 46.7 µM (inactive), 33.7 µM (inactive) and 17.7 µM (inactive), respectively.
As for `COc1c(C)c2c(c(O)c1C/C=C(\C)CCC(=O)O)C(=O)OC2` [MYCOPHENOLIC ACID], the GI50 with LXFL 529 was 0.693 µM (active); with M19-MEL, 1.28 µM (inactive); with HOP-18, 16.1 µM (inactive); in the test with DLD-1, 0.57 µM (active); with DMS-273 it was 0.35 µM (active); in the test with DMS-114 it was 0.845 µM (active).
Consider `O=C(Nc1cccc(Cc2cccc(NC(=O)c3ccccc3)c2)c1)c1ccccc1`, for which the GI50 was 28.7 µM (inactive) in the test on LXFL 529; 63 µM (inactive) with M19-MEL; 34.3 µM (inactive) in the test with HOP-18; 91.8 µM (inactive) in the test with DLD-1; 55 µM (inactive) in the test with DMS-273; 10.6 µM (inactive) in the test on DMS-114.
Consider `CCc1cccc(C)c1NC(=O)CC(=O)NNC(N)=S`, for which the GI50 in the test with XF498, in the test on LXFL 529, in the test with HOP-18, with SNB-78, in the test on DLD-1 and in the test with DMS-273 was > 100 µM (inactive) throughout. Further, the GI50 with DMS-114 is > 100 µM (inactive).
For `O=S(=O)(O)C(O)/C=C/c1ccccc1` (centres undefined), the GI50 was > 100 µM (inactive) with LXFL 529; > 100 µM (inactive) in the test on M19-MEL; > 100 µM (inactive) in the test with HOP-18; > 100 µM (inactive) in the test on DLD-1; > 100 µM (inactive) with DMS-273; 65.2 µM (inactive) with DMS-114.
Take `Cc1c(Cl)ccc2c1NC(=O)C2(O)CC(=O)c1cccc2ccccc12` (centres undefined): the GI50 was > 100 µM (inactive) with XF498; > 100 µM (inactive) in the test with LXFL 529; 18.3 µM (inactive) in the test on M19-MEL; 77.3 µM (inactive) in the test with HOP-18; > 100 µM (inactive) with SNB-78; > 100 µM (inactive) in the test on DLD-1. For the same compound, the figures for the GI50 in the test on DMS-273 and with DMS-114 were 40.1 µM (inactive) and 18.3 µM (inactive), respectively.
Turning to `O=C(OCN1C(=O)C2C3C=CC(C2C1=O)C1C2C(=O)N(COC(=O)C4CCCN4)C(=O)C2C31)C1CCCN1` (centres undefined), the GI50 with XF498 is > 75.9 µM (inactive); with LXFL 529, 78.7 µM (inactive); in the test with M19-MEL, > 77.8 µM (inactive); in the test on RXF 631, > 64.7 µM (inactive); in the test on HOP-18, > 100 µM (inactive); in the test with SNB-78, > 100 µM (inactive). The results for the GI50 in the test with DLD-1, in the test on DMS-273 and in the test with DMS-114 were 34.2 µM (inactive), 38.5 µM (inactive) and 25.9 µM (inactive), respectively.
On to `O=C1CCC(c2ccccc2)C(O)(C(=O)O)C1` (centres undefined), for which the GI50 in the test with LXFL 529, in the test with M19-MEL, in the test with RXF 631, with HOP-18, in the test on SNB-78 and in the test with DLD-1 was > 100 µM (inactive) in each case. Besides, the GI50 in the test with DMS-273 is > 100 µM (inactive).
Regarding `Cc1ccc(S(=O)(=O)N(/N=C/C=C/c2ccccc2)c2nnc(-c3ccccc3)c(-c3ccccc3)n2)cc1`, the GI50 is 28.1 µM (inactive) in the test on M19-MEL; 16.8 µM (inactive) with SNB-78; 21.9 µM (inactive) with DLD-1; 18.9 µM (inactive) in the test on DMS-273; 16.3 µM (inactive) in the test with DMS-114.
In the case of `CSc1nc(NC2OC(COC(C)=O)C(OC(C)=O)C(OC(C)=O)C2OC(C)=O)c(/N=C/C=N/c2c(NC3OC(COC(C)=O)C(OC(C)=O)C(OC(C)=O)C3OC(C)=O)nc(SC)[nH]c2=O)c(=O)[nH]1` (centres undefined), the GI50 in the test with LXFL 529, with M19-MEL, with RXF 631, with HOP-18, in the test on SNB-78 and with DLD-1 was > 100 µM (inactive) throughout. Besides, the GI50 in the test on DMS-273 and with DMS-114 was > 100 µM (inactive) each time.
Take `COC1=CC(=O)C(O)=C(CC2(C)C(C)CCC3(C)C2CCCC3(C)C)C1=O` (centres undefined): the GI50 with XF498 was 4.14 µM (inactive); in the test with LXFL 529 it was 5.41 µM (inactive); with M19-MEL it was 2.16 µM (inactive); in the test on RXF 631, 25.7 µM (inactive); with HOP-18, 2.65 µM (inactive); with SNB-78, 18.1 µM (inactive). Besides, the figures for the GI50 in the test on DLD-1, in the test with DMS-273 and with DMS-114 were 5.53 µM (inactive), 3.47 µM (inactive) and 2.57 µM (inactive), respectively.
On to `Cc1ccc(-c2cc(-c3ccco3)c(C#N)c(=O)n2C2OC(OC(=O)c3ccccc3)C(OC(=O)c3ccccc3)C2OC(=O)c2ccccc2)cc1` (centres undefined), for which the GI50 in the test with LXFL 529 is > 100 µM (inactive); in the test with M19-MEL it was > 100 µM (inactive); with RXF 631, > 100 µM (inactive); with HOP-18 it was > 100 µM (inactive); in the test on SNB-78, 83.6 µM (inactive); with DLD-1, > 100 µM (inactive). The GI50 in the test with DMS-273 is 97.1 µM (inactive); in the test on DMS-114 it was 38.6 µM (inactive).
Take `COc1cccc(/C=C(\NC(C)=O)c2nc3cc(Cl)ccc3[nH]2)c1`: the GI50 in the test with XF498, with LXFL 529, in the test on M19-MEL, with SNB-78, in the test with DLD-1 and in the test with DMS-114 was > 100 µM (inactive) throughout.
For the compound `CC1(Br)C(=O)NC(=O)N(C2CC(N=[N+]=[N-])C(CO)O2)C1N=[N+]=[N-]` (centres undefined), the GI50 in the test with XF498, in the test with LXFL 529, in the test with M19-MEL, in the test on RXF 631, in the test with SNB-78 and in the test with DLD-1 was > 100 µM (inactive) in each case. Moreover, the GI50 with DMS-273 and in the test on DMS-114 was > 100 µM (inactive) in each case.
Regarding `O=C1NC(=O)C(C(=O)C(=O)Nc2ccc(Cl)cc2Cl)C(=O)N1`, the GI50 in the test with LXFL 529, with M19-MEL, in the test with RXF 631, in the test with SNB-78, with DLD-1 and in the test on DMS-114 was > 100 µM (inactive) each time.
As to `O=C1OCC(C(=O)c2cccc(O)c2)C1=O` (centres undefined), the GI50 in the test on LXFL 529, with M19-MEL, in the test with RXF 631, in the test on HOP-18, with SNB-78 and in the test on DLD-1 was > 100 µM (inactive) in each case. The GI50 in the test with DMS-273 and with DMS-114 was > 100 µM (inactive) in each case.
In the case of `C=CC1=C(C)c2cc3[nH]c(cc4nc(cc5[nH]c(cc1n2)c(C)c5CCC(=O)N(CC)CC)C(CCC(=O)N(CC)CC)=C4C)c(C)c3C=C`, the GI50 is > 100 µM (inactive) in the test with LXFL 529; > 100 µM (inactive) in the test on M19-MEL; < 0.01 µM (active) in the test with HOP-18; > 100 µM (inactive) in the test with SNB-78; > 100 µM (inactive) with DLD-1.
As to `CC1(C)C=N[N+]2(C)C3C=CC(CC3)C12` (centres undefined), the GI50 with LXFL 529, in the test on M19-MEL, in the test with RXF 631, with HOP-18, in the test with SNB-78 and in the test on DLD-1 was > 100 µM (inactive) throughout. In addition, the GI50 in the test with DMS-114 is > 100 µM (inactive).
